Bridge positions count the residues as written; N and C are the ends. Square brackets hold non-standard residues; d marks the D form. Peptide text beside a SMILES is read from it. * marks the point of attachment. ξ: configuration not given here. Ac6c(4-Ph-cis-to-N) = N[C@]1(C(=O)O)CC[C@H](c2ccccc2)CC1; Pentanoyl = CCCCC(=O)*; ξK = NCCCCC(N)C(=O)O
Target: T1, MC-4 receptor (Homo sapiens, UniProt P32245)
T1 construct: expressed in transfected cells; host or cells: HEK 293 cells (G418 selected)
Experiment: Agonist assay: cAMP response in HEK 293 cells transfected with the MC-4 receptor (Biotrak-cAMP SPA)
Assay type: cell-based
Details: HEK 293 cells transfected with MC-4 receptor, cAMP increase; read-out: EC50 for MC4-R agonist activity
Procedure: Description: HEK 293 cells transfected with either the MC-4 receptor or MC-1 receptor were grown in 96 well plates. The cells were stimulated with either 100 nM NDP-αMSH or screening compounds. Cyclic AMP was extracted from the cells and concentrations were determined using a Biotrak-cAMP SPA assay. Agonists were identified as those compounds causing an increase in cAMP.
Cell Culture: HEK 293 cells transfected with either the MC-4 receptor or MC-1 receptor were cultured in 75 cm^2 flasks in D-MEM supplemented with 10% FCS and 500 μg/ml G418. Cells were trypsinized and split 1:3 into 96 well flat-bottom tissue culture treated plates. Cells were stimulated at confluence (day 2-4).
cAMP Response: Compounds serially diluted in 100% DMSO were further diluted 1:200 (2.5 μl compound dilution +500 μl media) in D-MEM containing 10% FBS and 0.1 mM IBMX. For unstimulated cells, 2.5 μl of DMSO was added to 500 μl of media. For NDP-αMSH stimulated cells, 2.5 μl of 20μM NDP-αMSH in 100% DMSO was added to 500μl of media (final conc. 100 nM). Final concentration of DMSO in all wells was 0.5%.
Note: Each sample was run in duplicate on separate plates. […]
cAMP Assay: The extracted samples and all reagents included in the kit were brought to room temperature. […] [125I ]cAMP binding to the SPA beads was determined by counting each plate for 2 minutes on a Packard TopCount™. […]

T1 sequence (P32245 whole entry): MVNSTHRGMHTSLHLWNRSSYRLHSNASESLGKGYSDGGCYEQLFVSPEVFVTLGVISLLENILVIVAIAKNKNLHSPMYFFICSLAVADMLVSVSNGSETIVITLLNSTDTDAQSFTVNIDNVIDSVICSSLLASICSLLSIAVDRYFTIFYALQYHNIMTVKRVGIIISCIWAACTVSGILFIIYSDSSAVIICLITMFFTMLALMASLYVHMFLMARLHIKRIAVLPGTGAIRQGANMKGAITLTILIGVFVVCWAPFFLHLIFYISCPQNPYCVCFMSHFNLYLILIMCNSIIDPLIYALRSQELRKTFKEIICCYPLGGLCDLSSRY

- EC50: < 500 nM
Compound: CCCCC(=O)N[C@H]1CC(=O)NCCCCC(C(N)=O)NC(=O)[C@H](Cc2c[nH]c3ccccc23)NC(=O)[C@H](C)NC(=O)[C@@H](Cc2ccccc2)NC(=O)[C@]2(CC[C@H](c3ccccc3)CC2)NC1=O (stereo partly drawn) [Penta-cyclo(Asp-Lys)-Asp-Apc-(D)Phe-Ala-Trp-Lys-NH2] (Pentanoyl-D[Ac6c(4-Ph-cis-to-N)][dF]AW[ξK]-NH2; lactam 1-6)

Source: patent US7045591B2, “Selective cyclic peptides with melanocortin-4 receptor (MC4-R) agonist activity” (Hoffmann-La Roche Inc., priority 2000, dated 2006)
